Source: patent publication US20230338574A1, “ANTIBODY-NANOPARTICLE COMPLEXES AND METHODS FOR MAKING AND USING THE SAME” (priority 2020, published 2023)
Values belong to the molecule of their own block, whether it stands above or below them.

Key:
[1] = tested on: MDA-MB-231 tumor xenograft; assay: In vivo efficacy in MDA-MB-231 tumor xenograft; design: species or system female athymic nude mice; settings: Kaplan Meier
Experimental: Female athymic nude mice, 6 weeks of age, were purchased from Envigo Corporation.
Human breast cancer cell lines MDA-MB-231 were purchased from ATCC and were cultured and expanded in DMEM medium supplemented with 10% FBS, 100 units/ml of penicillin and 100 μg/ml of streptomycin at 37° C. in a 5% CO2 humidified environment for a period of 2-3 weeks before harvesting for implantation. Cell viability determined by Trypan blue dye exclusion assay was >90% before implantation. 4 million MDA-MB-231 cells in 100 μl of PBS were inoculated to the right upper flank of each mouse by s.c. injection.
Tumor volume measurement was started at day 25 after tumor cell inoculation and performed twice weekly. The longest longitudinal diameter as length and the widest transverse diameter as width were measured by using a digital caliper. Tumor volume (TV) was then calculated by the formula: TV=[length×(width)^2]/2 and were analyzed in Excel.
The treatment was started when average tumor size reached ˜400 mm^3.
Mice were euthanized when tumor size reached 2000 mm^3.
After tumor-bearing mice were randomized, 0.9% saline, anti-PDL1, Irinotecan 15, albumin bound non-toxic paclitaxel (NTP), free SN-38 at 7.5 and 15 mg/kg (SN38 7.5 and 15), albumin bound SN-38 at 7.5 and 15 mg/kg (Nab 7.5 and 15), anti-PDL1 plus SN38 Nab delivered at the same time in separate injections (PDL1+Nab15), or anti-PDL1 coated albumin bound SN-38 at 7.5 and 15 mg/kg (NIC 7.5 and NIC 15) were administered. Albumin bound SN-38 (Nab) and anti-PDL1 coated SN-38 Nab (NIC) were made as described above. Drugs were diluted in 0.9% saline and administered to the athymic nude mice in 100 μl by IV injections in the tail vein. SN-38 in all forms was given at 7.5 and 15 mg/kg in a single dose.
Raw data of tumor measurements (FIG. 7A-FIG. 7K) were analyzed in Excel. Tumor growth curves, day 7 tumor response and Kaplan-Meier survival curves were plotted using GraphPad Prism 8.0 software. Data from day 7 tumor response were compared using student's t-test. P values of less than 0.05 were considered significant (FIG. 8).
In MDA-MB-231 tumor xenograft model tumor responses were determined at day 7 using the equation: {([…])/tumor size day 0}*100. Differences in tumor response were determined by student's t-test in GraphPad Prism software 8.0. Percent change above the zero line indicates tumor growth, and below the zero line indicates tumor shrinking. […]
Kaplan Meier curves for the MDA-MB-231 xenotransplant model were generated in GraphPad Prism software 8.0 and median survival was determined to be 28, 34, 30, 24.5, 30, and 42.5 for the saline, anti-PDL1, Irinotecan 15, NTP, free SN38 7.5, and free SN38 15, respectively. […]

[2] = target: nab-paclitaxel (Taxol) nanoparticles with SN38 (human) (UniProt P02768); assay: zeta potential (Zetasizer), nanoparticles with 2, 4, 6 or 8 mg/ml antibody
[3] = target: T1, SN38:NTP Nab (albumin nanoparticles made with non-toxic paclitaxel derivative and SN38) (human, UniProt P02768 25-609); assay: zeta potential (Zetasizer), SN38:NTP:STI3031 NIC against SN38:NTP Nab
T1 construct: also called SN38 Nab

Molecule: anti-PDL1: anti-PDL1 H6B1L-EM antibody (STI3031), HC/LC SEQ ID NO. 1/SEQ ID NO. 2
median survival ([1]; IV injection, dose not given): 34

Molecule: CCc1c2c(nc3ccc(OC(=O)N4CCC(N5CCCCC5)CC4)cc13)-c1cc3c(c(=O)n1C2)COC(=O)[C@]3(O)CC [Irinotecan, irinotecan]
median survival ([1]; 15 mg/kg, IV): 30

Molecule: CCc1c2c(nc3ccc(O)cc13)-c1cc3c(c(=O)n1C2)COC(=O)[C@]3(O)CC [SN38]
median survival ([1]; 7.5 mg/kg, single IV dose): 30
median survival ([1]; 15 mg/kg, IV): 42.5

antibody concentration at which zeta potential reaches its maximum [2]: 4 mg/mL
B1: anti-PDL1 H6B1L-EM antibody (STI3031) (antibody, human IgG1, lambda, V domains shown)
VH: QMQLVQSGAEVKKPGSSVKVSCKASGGTFSSYAYSWVRQAPGQGLEWMGGIIPSFGTANYAQKFQGRVTITADESTSTAYMELSSLRSEDTAVYYCARGPIVATITPLDYWGQGTLVTVSS
VL: SYVLTQPPSVSVAPGKTATIACGGENIGRKTVHWYQQKPGQAPVLVIYYDSDRPSGIPERFSGSNSGNTATLTISRVEAGDEADYYCLVWDSSSDHRIFGGGTKLTVLG
notes: also called PDL1 antibody
binding result [3]: binds
